# From ChEMBL document CHEMBL1914322, “Novel terpenoids of the fungus Aspergillus insuetus isolated from the Mediterranean sponge Psammocinia sp. collected along the coast of Israel” (2011)
# Calls of active or inactive are those of the source. No cut-off for these calls is given here.
# Key:
# Neurospora crassa = experiment: Antifungal activity against Neurospora crassa 74-OR23-1A after 12 hrs; type: functional
# MOLT-4 = experiment: Cytotoxicity against human MOLT4 cells at […]; type: functional
MIC (Neurospora crassa),Structure (SMILES),inhibition (MOLT-4)
162 µM,CC(O)C(O)/C=C/C=C/C(=O)O[C@@H]1C=C2COC(=O)[C@]2(O)[C@@]2(C)CCCC(C)(C)[C@H]12 (stereo not given in full),
140 µM,CC1(C)OC(=O)C=C[C@]2(C)[C@@H]3C[C@@]4(C)C(=O)[C@@]5(C)C[C@@H]6C(=O)OC[C@@]64O[C@@]3(CC[C@@H]12)C5 [INSUETOLIDE A],inactive
242 µM,CC1(C)CCC[C@@]2(C)[C@H]1[C@H](O)C=C1COC(=O)[C@@]12O [STROBILACTONE A],inactive
